We go through 17 compounds from patent US20240279207A1, “SUBSTITUTED ACYL SULFONAMIDES FOR TREATING CANCER” (The Broad Institute, Inc., priority 2020, published 2024).

Where two headings read alike, the source gives them in different places.

Experiment [1] has as its target T1, Recombinant human His-tagged Kat6a protein (amino acids 194-810) (Homo sapiens, UniProt Q92794).
T1 construct: Kat6a protein (amino acids 194-810); His
In words: Kat6a activity assay (TR-FRET, acetylation of Histone-H4-derived peptide). To be noted: 60 mins at 22° C., 220 nM H4 peptide, 600 nM Acetyl Coenzyme A, read-out: KAT6A - DPF/HAT domain IC50 [mol/l] (arithmetic mean). It is filed as biochemical.

For experiment [2], the system named is ESR1 transcription in MVLN cells. Briefly: MVLN reporter assay: repression of ESR1 transcription (luciferase signal). Format: cell-based. To be noted: luciferase signal after 24 h, read-out: MVLN reporter assay, IC50 [M] (arithmetic mean). Summed up:
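MVLN cells, expressing ER and stably carrying a vitellogenin A2 ERE-luciferase reporter, treated with compound in duplicate; luciferase read after 24 h with Steadylite plus. Cell density checked in parallel by Alamar Blue fluorescence (530/590 nm, 2 h) before the luciferase read.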

The test system of a further experiment is ZR-75-1 cells. Briefly: ZR-75-1 proliferation assay. Format: cell-based. The settings on record: Alamar Blue, read-out: ZR75-1 proliferation assay, EC50 [M] (arithmetic mean). The source says:
(§1) For compound characterization cell survival assays were routinely run in two cell lines. ZR-75-1 is a breast carcinoma cell line containing a focal KAT6A amplification and high KAT6A protein expression. Proliferation of this cell line is inhibited upon treatment with KAT6A inhibitors. As a negative control cell line MDA-MB-436 were used. These cells carry a […] deletion of the KAT6A gene, have a low KAT6A protein expression and are not growth inhibited upon treatment with KAT6A inhibitors.
(§2) For measurements cell lines were plated at the below indicated concentration per […] in 96-well plates in a humidified incubator at 37° C. and 5% CO2.
ZR-75-1 (ATCC, CRL-1500; breast carcinoma); 3000 cells per well; culture medium: RPMI 1640 (Biochrom #FG 1215) medium containing 2.5% FBS (Biochrom #S0615).
(§3) Each sample was prepared as triplicate and rim wells were excluded. Plates were incubated at 37° C. and 5% CO2 for 144 h. Cell viability was measured by adding 10 μL of Alamar Blue Reagent (Invitrogen #DAL 1100) and plates were incubated for 2 h at 37° C. and 5% CO2. Fluorescence was measured at 590 nm wavelength with a Tecan Spark or Victor X3 MTP-Reader (PerkinElmer).

The test system of the next experiment is LCLC97TM1. In words: LCLC97TM1 proliferation assay. It is filed as cell-based. The settings on record: read-out: LCLC97TM1 proliferation assay, EC50 [M] (arithmetic mean).
For a further experiment, the system named is MDA-MB-436 cells. In words: MDA-MB-436 proliferation assay (negative control cell line). Format: cell-based. The settings on record: 144 h, Alamar Blue, read-out: MDA-MB-436 proliferation assay, EC50 [M] (arithmetic mean).
Description: as §1, §2
MDA-MB-436 (CLS, 300278; breast adenocarcinoma); 3000 cells per well; culture medium: DMEM/Ham's F12 (Biochrom #FG 4815) medium containing 2.5% FBS (Biochrom #S0615).
as §3

Where [3] appears, read: Homo sapiens, LCLC-97TM1, LCLC97TM1.

T1 sequence (Q92794 194-810): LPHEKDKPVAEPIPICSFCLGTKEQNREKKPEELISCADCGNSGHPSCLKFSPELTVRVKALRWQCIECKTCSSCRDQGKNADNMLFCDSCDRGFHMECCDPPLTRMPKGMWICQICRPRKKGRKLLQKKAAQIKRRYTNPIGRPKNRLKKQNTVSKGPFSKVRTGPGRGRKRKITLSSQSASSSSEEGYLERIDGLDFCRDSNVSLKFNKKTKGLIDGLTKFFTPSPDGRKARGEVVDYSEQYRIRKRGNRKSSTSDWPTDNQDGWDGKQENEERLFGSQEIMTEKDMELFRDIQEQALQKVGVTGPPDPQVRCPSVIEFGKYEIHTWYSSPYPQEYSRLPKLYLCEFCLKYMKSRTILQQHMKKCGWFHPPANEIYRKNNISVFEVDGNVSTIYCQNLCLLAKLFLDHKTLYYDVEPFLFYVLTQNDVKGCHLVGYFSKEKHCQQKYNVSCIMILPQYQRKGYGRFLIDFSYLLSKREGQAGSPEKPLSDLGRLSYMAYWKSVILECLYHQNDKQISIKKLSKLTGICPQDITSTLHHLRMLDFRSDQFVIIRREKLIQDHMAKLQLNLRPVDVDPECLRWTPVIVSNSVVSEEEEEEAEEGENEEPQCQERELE

Consider `COc1ccc(N2CCCC2c2ccccc2)cc1S(=O)(=O)NC(=O)c1cc2c(F)cc(N3CCC3)cc2o1` (racemic) [Example 201, 6-(Azetidin-1-yl)-4-fluoro-N-[2-methoxy-5-(2-phenylpyrrolidin-1-yl)benzene-1-sulfonyl]-1-benzofuran-2-carboxamide (rac)], for which the IC50 in experiment [1] was 0.814 nM; in experiment [2] (Homo sapiens, MVLN, 24 h), 6.48e-07 M. The EC50 in the experiment on ZR-75-1 cells (Homo sapiens, ZR-75-1, 144 h) is 3.26e-06 M; in the experiment with LCLC97TM1 (setting [3]) it was 2.81e-06 M; in the experiment on MDA-MB-436 cells (Homo sapiens), greater than 2e-05 M.
As for `CC(Oc1ccccc1S(=O)(=O)NC(=O)c1cc2c(F)cc(N3CCC3)cc2o1)C(F)(F)F` (single isomer, unassigned) [Example 14], the IC50 in experiment [1] is 28.1 nM; in experiment [2] (Homo sapiens, MVLN, 24 h), 6.93e-08 M. The EC50 with ZR-75-1 cells (144 h) was 9.93e-08 M; in the experiment with LCLC97TM1 (LCLC97TM1), 1.39e-06 M; with MDA-MB-436 cells (Homo sapiens), greater than 2e-05 M.
Regarding `CC(Oc1ccccc1S(=O)(=O)NC(=O)c1cc2c(F)cc(N3CCC3)cc2o1)C(F)(F)F` (single isomer, unassigned) [Example 15], the IC50 was 47.2 nM in experiment [1] and 7.55e-08 M in experiment [2]. For the same compound, the EC50 was 2.46e-07 M in the experiment on ZR-75-1 cells (144 h), 6.28e-07 M with LCLC97TM1 (LCLC97TM1) and greater than 2e-05 M in the experiment with MDA-MB-436 cells.
Consider `CCc1ccc(OC2CCCC2)c(S(=O)(=O)NC(=O)c2cc3c(F)cc(N4CCC4)cc3o2)c1` [Example 3, 6-(Azetidin-1-yl)-N-[2-(cyclopentyloxy)-5-ethylbenzene-1-sulfonyl]-4-fluoro-1-benzofuran-2-carboxamide], for which the IC50 in experiment [1] worked out at 8.1 nM; in experiment [2] (Homo sapiens, MVLN, 24 h), 5.25e-08 M. Moreover, the EC50 in the experiment on ZR-75-1 cells (Homo sapiens, ZR-75-1, 144 h) was 2.32e-07 M; in the experiment with LCLC97TM1 (setting [3]), 1.11e-06 M; with MDA-MB-436 cells (Homo sapiens), greater than 2e-05 M.
Take `CCC(C)Oc1ccc(C)cc1S(=O)(=O)NC(=O)c1cc2c(F)cc(N3CCC3)cc2o1` (stereo not shown) [Example 4, 6-(Azetidin-1-yl)-N-(2-{[butan-2-yl]oxy}-5-methylbenzene-1-sulfonyl)-4-fluoro-1-benzofuran-2-carboxamide]: the IC50 in experiment [1] came to 8.72 nM; in experiment [2] (Homo sapiens, MVLN, 24 h), 6.3e-08 M. Further, the EC50 with ZR-75-1 cells (Homo sapiens, ZR-75-1, 144 h) was 1.14e-07 M; in the experiment on LCLC97TM1 (setting [3]), 6.42e-07 M; with MDA-MB-436 cells (Homo sapiens), greater than 2e-05 M.
For `O=C(NS(=O)(=O)c1c(OCc2ccccc2)cccc1OC1CCC1)c1cc2c(F)cc(N3CCC3)cc2o1` [Example 5, 6-(Azetidin-1-yl)-N-[2-(benzyloxy)-6-(cyclobutyloxy)benzene-1-sulfonyl]-4-fluoro-1-benzofuran-2-carboxamide], the IC50 in experiment [1] amounted to 1.42 nM; in experiment [2] (Homo sapiens, MVLN, 24 h), 6.43e-08 M. The EC50 in the experiment on ZR-75-1 cells (Homo sapiens, ZR-75-1, 144 h) is 3.57e-06 M; in the experiment on LCLC97TM1 (setting [3]), 9.88e-06 M; with MDA-MB-436 cells (Homo sapiens) it was greater than 2e-05 M.
In the same order, the values of `CCOc1ccc(C)cc1S(=O)(=O)NC(=O)c1cc2c(F)cc(N3CCC3)cc2o1` [Example 6, 6-(Azetidin-1-yl)-N-(2-ethoxy-5-methylbenzene-1-sulfonyl)-4-fluoro-1-benzofuran-2-carboxamide] are 34.9 nM, 7.45e-08 M, 3.28e-08 M, 3.12e-07 M and greater than 2e-05 M.
Consider `CCOc1cccc(OCc2ccccc2)c1S(=O)(=O)NC(=O)c1cc2c(F)cc(N3CCC3)cc2o1` [Example 7, 6-(Azetidin-1-yl)-N-[2-(benzyloxy)-6-ethoxybenzene-1-sulfonyl]-4-fluoro-1-benzofuran-2-carboxamide], for which the IC50 turned out to be 4.15 nM in experiment [1] and 1.23e-07 M in experiment [2] (Homo sapiens, MVLN, 24 h). For the same compound, the EC50 with ZR-75-1 cells (Homo sapiens, ZR-75-1, 144 h) was 3.7e-07 M; in the experiment on LCLC97TM1 (setting [3]) it was 2.92e-07 M; with MDA-MB-436 cells (Homo sapiens), greater than 2e-05 M.
As to `CCCOc1cccc(OCC)c1S(=O)(=O)NC(=O)c1cc2c(F)cc(N3CCC3)cc2o1` [Example 10, 6-(Azetidin-1-yl)-N-(2-ethoxy-6-propoxybenzene-1-sulfonyl)-4-fluoro-1-benzofuran-2-carboxamide], the IC50 in experiment [1] is 7.12 nM; in experiment [2] (Homo sapiens, MVLN, 24 h) it was 1.36e-07 M. In addition, the EC50 in the experiment on ZR-75-1 cells (Homo sapiens, ZR-75-1, 144 h) is 2.21e-07 M; in the experiment with LCLC97TM1 (setting [3]) it was 6.61e-07 M; with MDA-MB-436 cells (Homo sapiens), greater than 2e-05 M.
For `CCCOc1cccc(OCCC)c1S(=O)(=O)NC(=O)c1cc2c(F)cc(N3CCC3)cc2o1` [Example 17, 6-(Azetidin-1-yl)-N-(2,6-dipropoxybenzene-1-sulfonyl)-4-fluoro-1-benzofuran-2-carboxamide], the IC50 was 4.47 nM in experiment [1] and 1.76e-07 M in experiment [2] (Homo sapiens, MVLN, 24 h). For the same compound, the EC50 in the experiment on ZR-75-1 cells (Homo sapiens, ZR-75-1, 144 h) was 2.76e-07 M; with LCLC97TM1 (setting [3]), 8.49e-07 M; in the experiment with MDA-MB-436 cells (Homo sapiens), greater than 2e-05 M.
With `O=C(NS(=O)(=O)c1ccccc1-c1ccccc1)c1cc2c(F)cc(N3CCC3)cc2o1` [Example 20, Sodium {[6-(azetidin-1-yl)-4-fluoro-1-benzofuran-2-yl]carbonyl}([biphenyl]-2-ylsulfonyl)azanide], the IC50 stood at 34.2 nM in experiment [1] and 3.03e-07 M in experiment [2]. Besides, the EC50 in the experiment on ZR-75-1 cells (Homo sapiens, ZR-75-1, 144 h) was 2.87e-07 M; in the experiment on LCLC97TM1 (setting [3]) it was 1.42e-06 M; in the experiment with MDA-MB-436 cells, greater than 2e-05 M.
Consider `CCOc1ccc(C(C)(C)C)cc1S(=O)(=O)NC(=O)c1cc2c(F)cc(N3CCC3)cc2o1` [Example 78, 6-(azetidin-1-yl)-N-(5-tert-butyl-2-ethoxybenzene-1-sulfonyl)-4-fluoro-1-benzofuran-2-carboxamide], for which the IC50 in experiment [1] was 1.41 nM; in experiment [2] (Homo sapiens, MVLN, 24 h), 4.95e-09 M. In addition, the EC50 in the experiment on ZR-75-1 cells (Homo sapiens, ZR-75-1, 144 h) is 5.87e-08 M; in the experiment with LCLC97TM1 (setting [3]) it was 5.75e-08 M; in the experiment with MDA-MB-436 cells (Homo sapiens), greater than 2e-05 M.
In the case of `CC1(C)CCc2cccc(S(=O)(=O)NC(=O)c3cc4c(F)cc(N5CCC5)cc4o3)c2O1` [Example 80, 6-(Azetidin-1-yl)-N-(2,2-dimethyl-3,4-dihydro-2H-1-benzopyran-8-sulfonyl)-4-fluoro-1-benzofuran-2-carboxamide], the IC50 in experiment [1] was 12.1 nM; in experiment [2] (Homo sapiens, MVLN, 24 h), 7.27e-08 M. Moreover, the EC50 with ZR-75-1 cells (Homo sapiens, ZR-75-1, 144 h) was 1.49e-07 M; in the experiment with LCLC97TM1 (setting [3]) it was 3.17e-07 M; in the experiment on MDA-MB-436 cells (Homo sapiens) it was greater than 2e-05 M.
In the case of `CCOc1ccccc1S(=O)(=O)NC(=O)c1cc2ccc(N3CC(F)(F)C3)cc2o1` [Example 118, 6-(3,3-Difluoroazetidin-1-yl)-N-(2-ethoxybenzene-1-sulfonyl)-1-benzofuran-2-carboxamide], the IC50 in experiment [1] was found to be 1990 nM; in experiment [2] (Homo sapiens, MVLN, 24 h) it was 1.2e-06 M. Besides, the EC50 in the experiment with ZR-75-1 cells (Homo sapiens, ZR-75-1, 144 h) was 2.46e-06 M; with LCLC97TM1 (setting [3]) it was 2.72e-06 M; in the experiment on MDA-MB-436 cells (Homo sapiens) it was greater than 2e-05 M.
In the case of `O=C(NS(=O)(=O)c1ccccc1-c1ccccc1)c1cc2ccc(N3CC(F)(F)C3)cc2o1` [Example 119, N-([1,1′-biphenyl]-2-sulfonyl)-6-(3,3-difluoroazetidin-1-yl)-1-benzofuran-2-carboxamide], the IC50 in experiment [1] was found to be 1100 nM; in experiment [2] (Homo sapiens, MVLN, 24 h), 3.04e-06 M. The EC50 is 3.7e-06 M in the experiment on ZR-75-1 cells (Homo sapiens, ZR-75-1, 144 h); 1.46e-05 M with LCLC97TM1 (setting [3]); greater than 2e-05 M with MDA-MB-436 cells (Homo sapiens).
Turning to `CCOc1ccccc1S(=O)(=O)NC(=O)c1cc2ccc(N3CC4(COC4)C3)cc2o1` [Example 125, N-(2-ethoxybenzene-1-sulfonyl)-6-(2-oxa-6-azaspiro[3.3]heptan-6-yl)-1-benzofuran-2-carboxamide], the IC50 in experiment [1] was greater than 20000 nM; in experiment [2] (Homo sapiens, MVLN, 24 h), greater than 2e-05 M. In addition, the EC50 is greater than 2e-05 M in the experiment on ZR-75-1 cells (Homo sapiens, ZR-75-1, 144 h); greater than 2e-05 M in the experiment with LCLC97TM1 (setting [3]); greater than 2e-05 M in the experiment on MDA-MB-436 cells (Homo sapiens).
Turning to `O=C(NS(=O)(=O)c1cccc2ccc(Cl)nc12)c1cc2c(F)cc(N3CCC3)cc2o1` [Example 132, 6-(Azetidin-1-yl)-N-(2-chloroquinoline-8-sulfonyl)-4-fluoro-1-benzofuran-2-carboxamide], the IC50 in experiment [1] worked out at 14.1 nM; in experiment [2] (Homo sapiens, MVLN, 24 h), 5.41e-08 M. Moreover, the EC50 in the experiment on ZR-75-1 cells (Homo sapiens, ZR-75-1, 144 h) was determined as 1.08e-07 M; in the experiment on LCLC97TM1 (setting [3]), 1.36e-07 M; in the experiment with MDA-MB-436 cells (Homo sapiens) it was 1.22e-05 M.
